Source: patent US6716987B1, “Derivatives of benzofuran or benzodioxazole compounds” (Kyowa Hakko Kogyo Co., Ltd., priority 1995, dated 2004)
Counter-ions that a name gives are not always drawn.

Test system: not given
Test: not given
Conditions: not given
COc1ccc(C(=O)Cc2c(Cl)cncc2Cl)c2c1OC(c1ccccc1)(c1ccccc1)O2 gave a melting point of 156 to 157 °C.
In the case of COc1ccc(C(=O)Cc2c(Cl)cncc2Cl)c2c1OCC2CC(=O)OCc1ccccc1 (stereo not shown), the melting point was 120 to 122 °C.
Compound COc1ccc(C(=O)Nc2ccncc2)c2c1OC(C)(C)O2 has a melting point of 180 to 181 °C.
Compound CCOC(=O)Cc1coc2c(OC)ccc(C(=O)Cc3ccncc3)c12 has a melting point of 111 to 117 °C.
In the case of CCOC(=O)c1cccc(NC(=O)c2ccc(OC)c3c2OCCO3)c1, the melting point was 174 to 175 °C.
For COc1ccc(C=C(C#N)C#N)c2c1OC(C)(C)C2, the melting point was 198 to 200 °C.
COc1ccc(C(=O)Cc2ccncc2)c2c1OCCO2.Cl gave a melting point of 226 to 228 °C.
Work on COc1ccc(-c2cccc(C(=O)O)c2)c2c1OC(C)(C)C2 yielded a melting point of 220 to 225 °C.
Compound COc1ccc(-c2ccc(C(=O)O)cc2)c2c1OCCO2 has a melting point of 281 to 284 °C.
In the case of COc1ccc(C(=O)Cc2ccncc2)c2c1CC1(CCCC1)O2, the melting point was 101 to 103 °C.
Compound COc1ccc(C(=O)Cc2c(Cl)cccc2Cl)c2c1OCCO2 has a melting point of 154 to 155 °C.
In the case of COc1ccc(C(=O)Nc2c(Cl)cccc2Cl)c2c1OCCO2, the melting point was 176 to 177 °C.
Compound COc1ccc(C(C)=Cc2ccncc2)c2c1OC(C)(C)C2 has a melting point of 85 to 87 °C.
Compound COc1ccc(C(=O)Cc2c(Cl)cncc2Cl)c2c(CC(=O)OCc3ccccc3)coc12 has a melting point of 132 to 133 °C.
With COc1ccc(-c2ccc(C(=O)O)cc2)c2c1OC(C)(C)C2 the melting point was 249 to 252 °C.
Work on COc1ccc(/C=C/C(=O)Nc2ccncc2)c2c1OC1(CCCC1)C2 yielded a melting point of 124 to 128 °C.
In the case of COc1ccc(C(=O)Nc2cccc(C(=O)O)c2)c2cc(C(=O)c3ccccc3)oc12, the melting point was 262 to 263 °C.
For COc1ccc(C(=O)Nc2ccncc2)c2c1CC1(CCCC1)O2.CS(=O)(=O)O, the melting point was 164 °C (dec.).
For COc1ccc(/C=C/c2c(Cl)cncc2Cl)c2c1OCC2C (racemic), the melting point was 117 to 118 °C.
Work on COc1ccc(C(=O)Cc2c(Cl)cncc2Cl)c2c1OC(C)(C)C2 yielded a melting point of 127 to 131 °C.
For COc1ccc(C(=O)Cc2c(Cl)cncc2Cl)c2c(CC(=O)O)coc12, the melting point was 192 to 194 °C.
With COc1ccc(CNc2ccncc2)c2c1OCC2C (racemic) the melting point was 138 to 145 °C.
Compound CCN1CCN(C(=O)c2cc3c(C(=O)Cc4c(Cl)cncc4Cl)ccc(OC)c3o2)CC1.O=C(O)/C=C/C(=O)O has a melting point of 196 to 197 °C.
Work on COc1ccc(C(=O)Nc2c(Cl)cncc2Cl)c2c1OCC2 yielded a melting point of 196 to 197 °C.
COc1ccc(C(=O)Nc2c(F)cccc2F)c2c(CC(=O)OCc3ccccc3)coc12 gave a melting point of 223 to 224 °C.
In the case of COc1ccc(/C=C/c2c(Cl)cncc2Cl)c2cc(-c3ccncc3)oc12, the melting point was 204 to 206 °C.
COc1ccc(C(=O)Nc2c(Cl)cncc2Cl)c2c1CC1(CCCC1)O2 showed a melting point of 156 to 158 °C.
In the case of COc1ccc(C(=O)Cc2c(Cl)cncc2Cl)c2c1OC(C)(C)O2, the melting point was 133 to 134 °C.
Work on COc1ccc(C(=O)Nc2c(Cl)cncc2Cl)c2c1OCCCCO2 yielded a melting point of 115 to 117 °C.
Compound COc1ccc(C(=O)Cc2c(Cl)cccc2Cl)c2cc(C(=O)N(C)c3cccc(F)c3)oc12 has a melting point of 198 to 199 °C.
CCOC(=O)c1ccc(-c2ccc(OC)c3c2OCCO3)cc1 showed a melting point of 141 to 141.5 °C.
In the case of COc1ccc(C(C)=Cc2ccncc2)c2c1OC1(CCCC1)C2 (as salt: salt) [Compound 75, 7-Methoxy-4-[1-methyl-2-(4-pyridyl)ethenyl]-spiro[2,3-dihydrobenzofuran-2,1′-cyclopentane]], the melting point was 85 to 87 °C.
With COc1ccc(C(=O)Cc2c(Cl)cncc2Cl)c2cc(C#N)oc12 the melting point was 197 to 199 °C.
In the case of COc1ccc(C(=O)Cc2ccncc2)c2c1OCCCO2.Cl, the melting point was 205 to 208 °C.
Compound COc1ccc(C(=O)Cc2ccncc2)c2c1OC(C)(C)C2 has a melting point of 107 to 111 °C.
In the case of COc1ccc(C(=O)Nc2c(Cl)cncc2Cl)c2c1OCCO2, the melting point was 143 to 145 °C.
COc1ccc(/C=C/c2c(Cl)cncc2Cl)c2c1OC(C)(C)C2 showed a melting point of 114 to 118 °C.
COC1(OC)CC=C(C(Cc2ccncc2)c2ccccc2)C2=C1OC(C)(C)C2 (racemic) [Compound 47, (±) 7-Methoxy-2,2-dimethyl-7-methoxy-4-[1-phenyl-2-(4-pyridyl)ethyl]-2,3-dihydrobenzofuran] showed a melting point of 78 to 81 °C.
Compound COc1ccc(C(=O)Cc2c(Cl)cncc2Cl)c2c1OCO2 has a melting point of 170 to 171 °C.
Work on COC(=O)c1cccc(-c2ccc(OC)c3c2CC(C)(C)O3)c1 yielded a melting point of 89 to 91 °C.
COc1ccc(C(=O)Nc2c(C)cccc2C)c2c(CC(=O)OCc3ccccc3)coc12 showed a melting point of 202 to 204 °C.
For COc1ccc(C(=O)Cc2c(Cl)cncc2Cl)c2cc(C(=O)c3ccccc3)oc12, the melting point was 213 to 215 °C.
Work on COc1ccc(C(=O)Nc2c(Cl)cncc2Cl)c2cc(Cc3ccccc3)oc12 yielded a melting point of 141 to 142 °C.
COC(=O)c1ccc(-c2ccc(OC)c3c2CC(C)(C)O3)cc1 showed a melting point of 116 to 122 °C.
Work on COc1ccc(CCc2ccncc2)c2c1OCCCO2.Cl yielded a melting point of 185 to 187 °C.
For COc1ccc(C(=O)Nc2c(Cl)cncc2Cl)c2c1OCCCO2, the melting point was 149 to 150 °C.
Compound COc1ccc(C(=O)Cc2c(Cl)cncc2Cl)c2c1OCCO2 has a melting point of 158 to 160 °C.
With COc1ccc(C(=O)Nc2cccc(C(=O)O)c2)c2c1OCCO2 the melting point was 283 to 284 °C.
Work on CCOC(=O)Cc1coc2c(OC)ccc(C(=O)Cc3c(Cl)cccc3Cl)c12 yielded a melting point of 153 to 154 °C.
With CCOC(=O)Cc1coc2c(OC)ccc(C(=O)Cc3c(Cl)cncc3Cl)c12 the melting point was 105 to 115 °C.

Test system: cAMP-specific phosphodiesterase (PDE IV)
Test: Inhibition of the PDE IV enzyme derived from a dog trachea
Assay type: biochemical
Conditions: test compound 10^−6 M; PDE IV from dog tracheal smooth muscle; substrate cAMP 1 μM
Method: cAMP-specific phosphodiesterase (PDE IV) was purified from a dog tracheal smooth muscle according to the method of Torphy et al. [Molecular Pharmacol., 37, 206-214 (1990)]. The PDE activity was measured by the following two steps according to the method of Kincaid and Manganiello et al. [Method in Enzymology (J. D. Corbin and R. A. Jonson, Eds.), 199, 457-470 (1988)]. Using [^3]cAMP (at a final concentration of 1 μM) as a substrate, the reaction was carried out in a standard mixture containing N,N-bis(2-hydroxyethyl)-2-aminoethanesulfonic acid (50 mM, pH=7.2), MgCl2 (1 mM), and soybean trypsin inhibitor (0.1 mg/ml). The reaction was initiated by adding the enzyme, followed by incubation at 30° C. for 10 to 30 minutes. After stopping the reaction with hydrochloric acid, the generated […] was completely converted to adenosine by 5′-nucleotidase.
The resultant was subjected to chromatography on DEAE-Sephadex A-25, and radio activity of the eluted [^3H] adenosine was counted using a scintillation counter. Each of the test drugs was dissolved in DMSO (final concentration 1.7%) and then added to the mixture.
In the case of COc1ccc(/C=C/c2ccncc2)c2c1OCC2C (racemic) [Compound 79, (E)-(±)-7-Methoxy-3-methyl-4-[2-(4-pyridyl)ethenyl]-2,3-dihydrobenzofuran], the “Enzyme Inhibitory Activity (%, 10^−6 M)” value was 45%.
In the case of COc1ccc(C(=O)Cc2ccncc2)c2c1OC1(CCCC1)CC2.Cl [Compound 127, 8-Methoxy-5-[1-oxo-2-(4-pyridyl)ethyl]-spiro[3,4-dihydrobenzopyran-2,1′-cyclopentane].hydrochloride], the “Enzyme Inhibitory Activity (%, 10^−6 M)” value was 70%.
For COc1ccc(/C=C/c2ccncc2)c2c1OC1(CCCCC1)C2.Cl [Compound 77, (E)-7-Methoxy-4-[2-(4-pyridyl)ethenyl]-spiro[2,3-dihydrobenzofuran-2,1′-cyclohexane].hydrochloride], the “Enzyme Inhibitory Activity (%, 10^−6 M)” value was 87%.
In the case of COc1ccc(C(=O)Nc2c(Cl)cncc2Cl)c2cc(C#N)oc12 [Compound 34, 2-Cyano-4-(3,5-dichloropyridin-4-ylaminocarbonyl)-7-methoxybenzofuran], the “Enzyme Inhibitory Activity (%, 10^−6 M)” value was 100%.
For COc1ccc(C(=O)Nc2ccncc2)c2cc(-c3ccncc3)oc12.Cl.Cl [Compound 39, 7-Methoxy-2-(4-pyridyl)-4-(4-pyridylaminocarbonyl)-benzofuran.2 hydrochloride], the “Enzyme Inhibitory Activity (%, 10^−6 M)” value was 77%.
In the case of COc1ccc(/C=C/c2c(Cl)cncc2Cl)c2c1OC1(CCCCC1)C2.CS(=O)(=O)O [Compound 76, (E)-4-[2-(3,5-Dichloro-4-pyridyl)ethenyl]-7-methoxy-spiro[2,3-dihydrobenzofuran-2,1′-cyclohexane].methanesulfonate], the “Enzyme Inhibitory Activity (%, 10^−6 M)” value was 93%.
For COc1ccc(/C=C/c2ccncc2)c2cc(-c3ccccn3)oc12.Cl.Cl [Compound 85, (E)-7-Methoxy-2-(2-pyridyl)-4-[2-(4-pyridyl)ethenyl]-benzofuran.2 hydrochloride], the “Enzyme Inhibitory Activity (%, 10^−6 M)” value was 69%.
For COc1ccc(C(=O)Cc2ccncc2)c2c1O[C@@H]1CCCC[C@H]21.Cl (racemic) [Compound 105, (±)-cis-6-Methoxy-9-[1-oxo-2-(4-pyridyl)ethyl]-1,2,3,4,4a,9b-hexahydrodibenzofuran.hydrochloride], the “Enzyme Inhibitory Activity (%, 10^−6 M)” value was 66%.
For COc1ccc(C(Cc2c(Cl)cncc2Cl)OC)c2c1OC(C)(C)C2 (racemic) [Compound 62, (±)-4-[2-(3,5-Dichloro-4-pyridyl)-1-methoxyethyl]-7-methoxy-2,2-dimethyl-2,3-dihydrobenzofuran], the “Enzyme Inhibitory Activity (%, 10^−6 M)” value was 63%.
In the case of COc1ccc(C(=O)Cc2ccncc2)c2cc(CC(C)C)oc12.Cl [Compound 110, 7-Methoxy-2-(2-methylpropyl)-4-[1-oxo-2-(4-pyridyl)-ethyl]benzofuran.hydrochloride], the “Enzyme Inhibitory Activity (%, 10^−6 M)” value was 80%.
For COc1ccc(C(=O)Cc2ccncc2)c2cc(-c3ccncc3)oc12.Cl.Cl [Compound 115, 7-Methoxy-4-[1-oxo-2-(4-pyridyl)ethyl]-2-(4-pyridyl)-benzofuran.2 hydrochloride], the “Enzyme Inhibitory Activity (%, 10^−6 M)” value was 85%.
In the case of COc1ccc(C(=O)Nc2c(Cl)cncc2Cl)c2c1OCC2CC(=O)N1CCN(C)CC1.Cl (racemic) [Compound 17, (±)-4-[(3,5-Dichloro-4-pyridyl)aminocarbonyl]-7-methoxy-3-[(4-methylpiperazin-1-yl)carbonylmethyl]-2,3-dihydro-benzofuran.hydrochloride], the “Enzyme Inhibitory Activity (%, 10^−6 M)” value was 63%.
With CCCCc1cc2c(C(=O)Cc3ccncc3)ccc(OC)c2o1.Cl [Compound 109, 2-Butyl-7-methoxy-4-[1-oxo-2-(4-pyridyl)ethyl]-benzofuran.hydrochloride] the “Enzyme Inhibitory Activity (%, 10^−6 M)” value was 68%.
For COc1ccc(CCc2ccncc2)c2c1OC1(CCCC1)O2.Cl [Compound 136, 4-Methoxy-7-[2-(4-pyridyl)ethyl]-spiro[1,3-benzodioxole-2,1′-cyclopentane].hydrochloride], the “Enzyme Inhibitory Activity (%, 10^−6 M)” value was 75%.
